Results taken from paper PMC12652428, “In Vitro and In Silico Evaluation of a Novel Multifunctional Cyclic Peptide with Antioxidant, Tyrosinase-Inhibitory, and Extracellular Matrix-Modulating Activities” (International Journal of Molecular Sciences, 2025).
Where a SMILES comes first, the peptide text is derived from it.

Key:
[1] = DPPH radical-scavenging assay
Procedure: To assess the antioxidant activity of the test samples, serial dilutions of the synthesized peptides were prepared, using ascorbic acid as a positive control. Each reaction mixture consisted of 12.5 μL of the sample solution, 50 μL of ethanol, and 62.5 μL of 0.10 mM DPPH solution. The mixtures were incubated for 30 min at 4 °C in the dark. After the reaction, the absorbance was measured at 520 nm using a multimode microplate reader. The free radical-scavenging activity (%) was calculated using Equation (2).
Radical-scavenging activity (%):(2) 100−b−b^′/a−a^′×100
(§1) a: Absorbance after reaction of stock solution.
(§2) b: Absorbance after reaction of sample solution.
a′, b′: Absorbance measured by substituting the buffer for 0.10 mM DPPH.

[2] = tested on: MMP-1; assay: UV-induced MMP-1 expression inhibition (ELISA) in human dermal fibroblasts CCD-986sk; format: cell-based
Procedure: To evaluate the inhibitory effect on MMP-1 expression, TGF-β1 (10 ng/mL) was used as the positive control. CCD-986sk cells were seeded into 24-well culture plates at a density of 1.5 × 10^4 cells/well and cultured for 24 h in IMDM supplemented with 10% FBS and 1% penicillin–streptomycin. The cells were then incubated in serum-free IMDM for 6 h to induce starvation, washed with 1 mL of DPBS, and irradiated with UV (5 J/cm^2). UV irradiation (5 J/cm^2) was performed under non-cytotoxic conditions previously reported to induce MMP-1 expression. The test samples were diluted in serum-free IMDM, applied to the cells, and incubated for 48 h.
MMP-1 Expression Inhibition (%):(4) 100−b/a×100
(§3) a: Expression of the corrected untreated group.
(§4) b: Expression of the corrected sample treatment group.
(§5) Protein content was measured using a Pierce BCA Protein Assay kit. After cell culture, 20 μL of the culture medium was mixed with 200 μL of the Pierce BCA Protein Assay reagent mixture and incubated at 37 °C for 30 min. The absorbance was then measured at 570 nm. The protein concentration was determined using an Albumin Standard as a reference.

[3] = tested on: type I procollagen; assay: Type I procollagen expression (ELISA) in human fibroblasts; format: cell-based
Procedure: ELISA was performed using a Type I Procollagen C-Peptide EIA Kit. Antibody-POD Conjugate solution (100 μL/well) was dispensed into the provided well strips, followed by the addition of 20 μL/well of standard solution or sample. After mixing, the plates were incubated at 37 °C for 3 h. Following incubation, the supernatants were discarded and wells were washed four times with wash buffer. Subsequently, 100 μL/well of Substrate Solution (TMBZ) was added and incubated at room temperature for 15 min, after which 100 μL/well of stop solution was added to terminate the reaction. Absorbance was measured at 450 nm using a multiplate reader. The expression levels of type I procollagen were compared and stimulation rate was calculated according to Equation (5).
Type I Procollagen Expression Promotion Rate (%):(5) 100−b/a×100
as §3, §4, §5

[4] = tested on: mushroom tyrosinase; assay: Tyrosinase inhibition assay; format: biochemical
Procedure: To assess tyrosinase inhibitory activity, serial dilutions of the synthesized peptide and the positive control, β-arbutin, were prepared. In a 96-well plate, 10 μL of sample solution was mixed with 110 μL of 0.10 M sodium phosphate buffer (pH 6.5), followed by the addition of 10 μL of mushroom tyrosinase solution (1500 U/mL) and 20 μL of 1.50 mM L-tyrosine. The reaction mixture was then incubated at 37 °C for 10 min. The absorbance was measured at an appropriate wavelength (475 nm) using a microplate reader and the percentage of tyrosinase inhibition was calculated using Equation (3).
Tyrosinase inhibition (%):(3) 100−b−b^′/a−a^′×100
as §1, §2
a′, b′: Absorbance measured by substituting the buffer for mushroom tyrosinase.

SMILES	DPPH radical scavenging rate ([1]; 200 μg/mL, 30 min at 4 °C in the dark, 520 nm) [%]	DPPH scavenging, concentration dependence ([1]; 3.13 to 200 μg/mL, p < 0.05)	DPPH radical scavenging activity ([1]; concentrations above 25 μg/mL, 30 min at 4 °C in the dark, 520 nm)	inhibition of MMP-1 expression ([2]; 400 μg/mL, UV 5 J/cm^2, 48 h, CCD-986sk, ELISA, vs UV-treated control) [%]	MMP-1 inhibition compared with TGF-β1 ([2]; 400 µg/mL, same experimental conditions, TGF-β1 10 ng/mL)	UV-induced MMP-1 expression ([2]; 200–400 μg/mL, vs UV-treated control, p < 0.05)	MMP-1 expression inhibition IC50 ([2]; n = 5, UV 5 J/cm^2, 48 h, CCD-986sk, ELISA) [µg/mL]	type I procollagen expression, higher than positive control TGF-β1 ([3]; 400 μg/mL, compared with TGF-β1)	increase in type I procollagen expression vs untreated control ([3]; 400 μg/mL, human fibroblasts, ELISA (Procollagen Type I C-Peptide EIA), p < 0.05)	type I procollagen increase compared with TGF-β1 ([3]; 400 µg/mL, same experimental conditions)	type I procollagen expression ([3]; 100–400 μg/mL, p < 0.05)	tyrosinase inhibition rate ([4]; 800 μg/mL, L-tyrosine substrate, pH 6.5, 37 °C, 10 min, 475 nm) [%]	tyrosinase inhibition, concentration dependence ([4]; 12.50 to 800 μg/mL, p < 0.05)	tyrosinase inhibition compared with β-arbutin ([4]; comparable concentrations)	IC50 ([4]; n = 3, L-tyrosine substrate, pH 6.5, 37 °C, 10 min, 475 nm, molar value printed beside 104.2 µg/mL) [µM]	tyrosinase inhibition IC50 ([4]; n = 3, L-tyrosine substrate, pH 6.5, 37 °C, 10 min, 475 nm, tested 12.50 to 800 μg/mL) [µg/mL]	tyrosinase inhibition IC50 (positive control) ([4]; tested 31.25 to 500 μg/mL, L-tyrosine substrate, pH 6.5, 37 °C, 10 min, 475 nm) [µg/mL]
N=C(N)NCCC[C@@H]1NC(=O)[C@H](CO)NC(=O)CNC(=O)[C@H](Cc2ccc(O)cc2)NC(=O)[C@H](CS)NC1=O [CR5, cyclic CYGSR] (cyclo(CYGSR))	83.18	concentration-dependent scavenging effects	more than 50%	73.55	stronger efficacy than TGF-β1	significantly reduced MMP-1 expression	261.3 ± 12.0	approximately 30.12%	approximately 44.68%	stronger efficacy than TGF-β1	promoted type I procollagen expression in a concentration-dependent manner	97.79	concentration-dependent inhibition	stronger tyrosinase inhibition than β-arbutin	184 ± 9.4	104.2 ± 5.3	–
OC[C@H]1O[C@@H](Oc2ccc(O)cc2)[C@H](O)[C@@H](O)[C@@H]1O [β-arbutin, reference compound]	–	–	–	–	–	–	–	–	–	–	–	–	–	–	–	–	160.12
